Measurements taken from patent US6090821A, “Substituted quinolin-2 (1H)-ones useful as HIV reverse transcriptase inhibitors” (E. I. DuPont de Nemours and Company, priority 1999, dated 2000).
Converted amounts (≈) assume the structure as drawn.

Tested on: HIV-1 (RF)
Assay: HIV RNA assay: microplate based compound evaluation in HIV-1 infected MT-2 cells
Type: cell-based
Details: Human immunodeficiency virus 1, MT2, 72 h; HIV-1 (RF) infected MT-2 cells, 3 days at 37° C.; virus dilutions selected to give this ddC value (standardization of inoculum); read-out: IC90 value (concentration of compound required to reduce the HIV RNA level by 90%)
Experimental: Plasmid pDAB 72 containing both gag and pol sequences of BH10 (bp 113-1816) cloned into PTZ 19R was prepared according to Erickson-Viitanen et al. AIDS Research and Human Retroviruses 1989, 5, 577. The plasmid was linearized with Bam HI prior to the generation of in vitro RNA transcripts using the Riboprobe Gemini system II kit (Promega) with T7 RNA polymerase. Synthesized RNA was purified by treatment with RNase free DNAse (Promega), phenol-chloroform extraction, and ethanol precipitation. RNA transcripts were dissolved in water, and stored at -70° C. The concentration of RNA was determined from the A260.
Biotinylated capture probes were purified by HPLC after synthesis on an Applied Biosystems (Foster City, Calif.) DNA synthesizer by addition of biotin to the 5' terminal end of the oligonucleotide, using the biotin-phosphoramidite reagent of Cocuzza, Tet. Lett. 1989, 30, 6287. […]
MT-2 and MT-4 cells were maintained in RPMI 1640 supplemented with 5% fetal calf serum (FCS) for MT-2 cells or 10% FCS for MT-4 cells, 2 mM L-glutamine and 50 μg/mL gentamycin, all from Gibco. […] Infectious titers of HIV-1(RF) stocks were 1-3×10^7 PFU (plaque forming units)/mL as measured by plaque assay on MT-2 cells (see below). […]

Q: Which IC90 does the source give for `Nc1ccn([C@H]2CC[C@@H](CO)O2)c(=O)n1` [ddC, 2',3'-dideoxycytidine] here?
A: 0.2 µg/mL (≈ 0.947 µM)
